Data from US10952432B2, “Cannabidiol compositions and uses thereof” (PHARMOTECH SA, priority 2016, dated 2021).

Assays:
[1] = test system: elastase produced by P. aeruginosa PAOW1(PT5); test: Elastase production measured by Elastin Congo Red enzymatic activity; assay type: cell-based, Pseudomonas aeruginosa; settings: CBD 500 μg/ml, overnight culture of wt strain, absorption at 495 nm normalized to cell density
Experimental: Elastase production was measured in two bacterial strains: Pseudomonas aeruginosa PAOW1(PT5) that is a wild type (wt) and Pseudomonas aeruginosa ΔlasIΔrhlI that is a mutant for quorum sensing signaling that has reduced production/expression of elastase due to the inhibition of the quorum sensing system. […] Insoluble ECR was removed by centrifugation and the absorption of the supernatant was measured at 495 nm and normalized according to cell density.

CB2 receptors = CB2 receptors (Homo sapiens, UniProt P34972); settings: compared with THC; cited from earlier work
[2] = test system: Pseudomonas aeruginosa ATCC 27853; test: Biofilm formation, crystal violet staining; assay type: cell-based
Experimental: Overnight pre-cultures of Pseudomonas aeruginosa ATCC 27853 strain were diluted to an OD600 (optical density measured at a wavelength of 600 nm) of 0.1 in 2 ml of LB (lysogeny broth) medium into polypropylene tubes. […] Planktonic cells were removed by washing once with distilled water and biofilms were stained with crystal violet (CV, 1% in water) for 30 minutes. CV was discarded and tubes were rinsed twice with water to remove excess of dye. The stained biofilms were re-suspended in 33% acetic acid and their density was evaluated by measuring the OD600 of the suspensions normalized for bacterial density.

[3] = test system: methicillin-resistant Staphylococcus aureus (MRSA) strains; settings: Appendino et al., 2008; cited from earlier work

CB2 receptors, sequence (P34972 whole entry): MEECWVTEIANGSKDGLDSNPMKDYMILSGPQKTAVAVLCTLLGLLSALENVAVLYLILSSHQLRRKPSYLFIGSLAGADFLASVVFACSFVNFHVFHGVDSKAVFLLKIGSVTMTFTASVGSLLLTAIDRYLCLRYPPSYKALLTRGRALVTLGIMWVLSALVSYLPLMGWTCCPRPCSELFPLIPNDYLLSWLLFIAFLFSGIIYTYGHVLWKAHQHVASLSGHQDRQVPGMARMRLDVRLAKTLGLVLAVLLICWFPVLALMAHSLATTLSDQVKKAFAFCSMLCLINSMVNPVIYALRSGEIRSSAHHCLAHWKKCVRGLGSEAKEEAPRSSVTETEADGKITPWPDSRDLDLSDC

## C=C(C)[C@@H]1CCC(C)=C[C@H]1c1c(O)cc(CCCCC)cc1O [CBD, 2-[(1R,6R)-6-isopropenyl-3-methylcyclohex-2-en-1-yl]-5-pentylbenzene-1,3-diol]
[1]
  reduction of the production of elastase as compared to control: about 30%
CB2 receptors
  affinity for CB2 receptors: very low affinity
[2]; CBD 1.9 μg/ml to 31.25 μg/ml, 12 h at 37° C., LB medium, OD600 normalized for bacterial density
  reduction of biofilm formation by a factor, as compared to control without CBD: about 2
[2]; higher concentration of CBD (62.5 and 125 μg/ml tested), probably due to reduced solubility in culture medium
  inhibitory effect on biofilm formation at higher concentration: inhibitory effect on biofilm formation is reduced
[3]
  activity against a variety of MRSA strains: having activity

## C=C(C)[C@@H]1CCC(C)=C[C@H]1c1c(O)cc(O)cc1CCCCC [abn-CBD, reference compound]
[3]
  activity against a variety of MRSA strains: having activity
